Structures are written as SMILES.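 Exposure lasted 48 hours, with cells grown in 96-well plates and compounds tested at five concentrations. Definition used: TGI = concentration required for complete inhibition of growth.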

Data on 1 molecule can be found in PubChem BioAssay (NCI).

In the test the test system is SN12K1 renal. Nature of the test: growth of human tumour cells (NCI), 48 h.

`CCOC(=O)c1ccc(N[C@@H]2c3cc4c(cc3C(c3cc(OC)c(O)c(OC)c3)[C@H]3C(=O)OCC32)OCO4)cc1` (stereo partly specified) yielded a TGI of 1.44 µM.
